# Patent US20150328245A1, “Agents for Eliminating Tumour-Initiating Cells” (priority 2012, published 2015)
# How the values were obtained:
# [1] = tested on: breast cancer cells MDA MB 231; assay: In vitro 3D primary sphere forming stem cell assay; type: cell-based
# Description: (§1) This assay measures the ability of cancer stem cells to form spheres in a serum free media where the spheres are in a suspended form. Through this assay we evaluated the potency of the compounds of the invention to kill cancer stem cells in comparison with the known chemotherapeutic agent Cisplatin.
# (§2) An exemplary procedure for the assay follows. Cells were grown in three dimensions on a plastic substrate, harvested in suspension in serum-free media, then the cells in the sample were trypsinized and a single cell suspension was formed by passing through a cell strainer. The cells were diluted according to the predetermined plating efficiency for the cell line being studied by suspending the cells in stem cell culture medium. 100 uL of this suspension was added into each well of a 96 well suspension plate, and the plate was incubated at 37 degrees Celsius in 5% CO2 atmosphere for 24 hours, then 2 uL of appropriate concentrations of the compounds of the invention and cisplatin were added into each respective well along with 100 uL of stem cell culture medium, and the plates were incubated at 37 degrees Celsius under 5% CO2 atmosphere for 72 hours. 2.5 uL of the compounds of the invention and cisplatin were added to each respective well along with 50 uL of stem cell culture medium and then the plates were incubated at 37 degrees Celsius under 5% CO2 atmosphere for 72 hours. 3 uL of appropriate concentrations of the compounds of the invention and cisplatin were added to each respective well along with 50 uL of stem cell culture medium and then the plates were incubated at 37 degrees Celsius under 5% CO2 atmosphere for 72 hours, then the spheres formed were observed under a microscope then counted and scored by size.
# (§3) Results of the in vitro 3D sphere forming stem cell assay are set forth in a tabular manner. The number in each box is the total number of spheres formed in the presence of either cisplatin or compound I-2 or compound I-3 at each drug concentration. GC refers to a growth control performed in the absence of drug or solvent (DMSO). GCD refers to a growth control performed in the absence of drug, but in the presence of DMSO.
# [2] = tested on: breast cancer cells MCF-7; assay: In vitro 3D primary sphere forming stem cell assay; type: cell-based
# Description: as §1, §2, §3
# DU145 [3] = assay: In vitro colorimetric cell death assay (MTT); type: cell-based; conditions: Homo sapiens
# Description: (§4) It's an in vitro colorimetric assay for assessing cell viability where the cells are grown in Two-dimensional surface.
# (§5) An exemplary procedure for the assay follows. Cancer cells and normal cells were plated in a 96 well plate as per predetermined plating efficiency. The plate was incubated for 24 hours in a 5% CO2 atmosphere at 37 degrees Celsius, a range of concentrations of the compounds I-1, I-2 and I-3 as well as cisplatin (known chemotherapeutic agents) were added to the separate wells, the plate was incubated further for 48 hours in a 5% CO2 atmosphere, the plate was centrifuged twice at 3000 rpm for 3 minutes, the supernatant fluid was discarded, 100 uL of 0.5 mg/mL MTT solution was added and the plate was incubated for 4 hours in a 5% CO2 atmosphere at 37 degrees Celsius. The plate was then centrifuged twice at 3000 rpm for 3 minutes, supernatant, was aspirated very carefully, 200 uL DMSO was added to each well to solubilize MTT crystals and mixed well by shaking the plate, the plate was incubated for 10 minutes in a 5% CO2 atmosphere at 37 degrees Celsius, the plate placed on the shaker of an ELISA plate reader and the absorbance at 570 nm was measured, then the percentage of viable cells remaining was calculated by first subtracting the background absorbance then comparing to the absorbance of a non-drug-treated cell sample, and the results were plotted on a graph to determine the IC50 for the compounds and cisplatin.
# MDAMB231 [4] = assay: In vitro colorimetric cell death assay (MTT); type: cell-based; conditions: Homo sapiens, MDA-MB-231, 48 hours
# Description: as §4, §5
# LNCaP = assay: In vitro colorimetric cell death assay (MTT); type: cell-based; conditions: Homo sapiens, 48 hours
# Description: as §4, §5
# T47D [5] = assay: In vitro colorimetric cell death assay (MTT); type: cell-based; conditions: Homo sapiens, 48 hours
# Description: as §4, §5
# PC3 [6] = assay: In vitro colorimetric cell death assay (MTT); type: cell-based; conditions: Homo sapiens, PC-3, 48 hours
# Description: as §4, §5
# DU145 [7] = assay: In vitro soft agar colony forming growth assay; type: cell-based; conditions: Homo sapiens, DU-145, 168 h, one week
# Description: (§6) The Soft Agar Assay for Colony Formation is considered the most stringent assay for detecting malignant transformation of cells. In this assay the cells are cultured in medium with low percentage of agar.
# (§7) An exemplary procedure for the assay follows.
# MDAMB231 [8] = assay: In vitro soft agar colony forming growth assay; type: cell-based; conditions: Homo sapiens, MDA-MB-231, 168 h
# Description: as §6, §7
# T47D [9] = assay: In vitro soft agar colony forming growth assay; type: cell-based; conditions: Homo sapiens, 168 h, one week
# Description: as §6, §7
# PC3 [10] = assay: In vitro soft agar colony forming growth assay; type: cell-based; conditions: Homo sapiens, PC-3, 168 h, one week
# Description: as §6, §7
# cancer cell lines = assay: In vitro colorimetric cell death assay (MTT), overall statement; type: cell-based
# Description: as §4, §5
# [11] = In vivo maximum tolerated dose assay for compound I-1; parameters: species or system nude mice
# Description: In vivo maximum tolerated dose (MTD) toxicity assay was carried out to evaluate the highest dose of a pharmaceutical treatment that will produce the desired effect without unacceptable toxicity. The purpose of administering MTD is to determine whether long-term exposure to a compound might lead to unacceptable adverse health effects in a subject, when the level of exposure is not sufficient to cause premature mortality due to short-term toxic effects.
# An exemplary procedure for the in vivo maximum tolerated dose toxicity assay follows. A statistically appropriate number of male and female nude mice were injected with a single dose of either 30 mg/kg, 10 mg/kg, 5 mg/kg, and 2.5 mg/kg of a compound I-1 interperitoneally (i.p.) on day zero. The number of mice surviving from each dose group after the first through fourth days was recorded, and the Maximum Tolerated Dose (“MTD”; e.g. the dose at which 100% of the animals survived after 4 days) was determined.
# L 929 = assay: In vitro colorimetric cell death assay (MTT); type: cell-based; conditions: Mus musculus, L929, 48 h
# Description: as §4, §5
# [12] = tested on: MCF10A (normal breast cell line); assay: In vitro colorimetric cell death assay (MTT); type: cell-based; conditions: 48 hours
# Description: as §4, §5
# L929 = assay: In vitro soft agar colony forming growth assay; type: cell-based; conditions: Mus musculus, L929, 168 h
# Description: as §6, §7
# HeLa = assay: In vitro soft agar colony forming growth assay; type: cell-based; conditions: Homo sapiens, 168 h
# Description: as §6, §7
smiles,measurement,setting,value
"COc1cc2c(OC3OCC(O)C(O)C3O)c3c(c(-c4ccc5c(c4)OCO5)c2cc1OC)C(=O)OC3 (stereo not drawn) [I-3, 9-(1,3-benzodioxol-5-yl)-4-[(3,4,5-trihydroxytetrahydro-2H-pyran-2-yl)oxy]naphtho-6,7-dimethoxynaphtho[2,3-c]furan-1(3H)-one]","numbers of primary spheres formed, compared with cisplatin",[1]; MDA MB 231,significantly less
same,# of 3D Primary Spheres Formed of Cells MDA MB231 (±SD),[1]; final conc. 0.125 μM,54(±5)
same,# of 3D Primary Spheres Formed of Cells MDA MB231 (±SD),[1]; final conc. 1.25 μM,38(±5)
same,# of 3D Primary Spheres Formed of Cells MDA MB231 (±SD),[1]; final conc. 12.5 μM,31(±5)
same,# of 3D Primary Spheres Formed of Cells MDA MB231 (±SD),[1]; final conc. 125 μM,9(±2)
same,# of 3D Primary Spheres Formed of Cells MDA MB231 (±SD),[1]; final conc. 1250 μM,0(±0)
same,"numbers of primary spheres formed, compared with cisplatin",[2]; MCF-7,significantly less
same,# of 3D Primary Spheres Formed of Cells MCF-7 (±SD),[2]; final conc. 0.125 μM,74(±10)
same,# of 3D Primary Spheres Formed of Cells MCF-7 (±SD),[2]; final conc. 1.25 μM,57(±5)
same,# of 3D Primary Spheres Formed of Cells MCF-7 (±SD),[2]; final conc. 12.5 μM,48(±10)
same,# of 3D Primary Spheres Formed of Cells MCF-7 (±SD),[2]; final conc. 125 μM,28(±6)
same,# of 3D Primary Spheres Formed of Cells MCF-7 (±SD),[2]; final conc. 1250 μM,0(±0)
same,IC50,"DU145 [3]; DU-145, DU145, MTT, 48 hours, read-out: IC 50",9.55 µM
same,IC50,MDAMB231 [4],10 µM
same,IC50,LNCaP,3.16 µM
same,IC50,T47D [5],21.1 µM
same,IC50,PC3 [6],13.5 µM
same,IC50,DU145 [7],0.661 µM
same,IC50,"MDAMB231 [8]; MDAMB231, soft agar, one week, read-out: IC 50",0.55 µM
same,IC50,T47D [9],0.7 µM
same,IC50,PC3 [10],0.85 µM
same,anticancer activity in cancer cell lines as compared to cisplatin,cancer cell lines,high anticancer activity
COc1cc2c(OC3OCC(OC)C(OC)C3OC(C)=O)c3c(c(-c4ccc5c(c4)OCO5)c2cc1OC)C(=O)OC3 (stereo not drawn) [I-1],Number of mice surviving after injection,"[11]; 2.5 mg/kg single dose i.p., day 0",6/6
same,Number of mice surviving after injection,"[11]; 2.5 mg/kg single dose i.p., day 1",6/6
same,Number of mice surviving after injection,"[11]; 2.5 mg/kg single dose i.p., day 2",6/6
same,Number of mice surviving after injection,"[11]; 2.5 mg/kg single dose i.p., day 3",6/6
same,Number of mice surviving after injection,"[11]; 2.5 mg/kg single dose i.p., day 4",6/6
same,Number of mice surviving after injection,"[11]; 5 mg/kg single dose i.p., day 0",6/6
same,Number of mice surviving after injection,"[11]; 5 mg/kg single dose i.p., day 1",6/6
same,Number of mice surviving after injection,"[11]; 5 mg/kg single dose i.p., day 2",6/6
same,Number of mice surviving after injection,"[11]; 5 mg/kg single dose i.p., day 3",6/6
same,Number of mice surviving after injection,"[11]; 5 mg/kg single dose i.p., day 4",6/6
same,Number of mice surviving after injection,"[11]; 10 mg/kg single dose i.p., day 0",6/6
same,Number of mice surviving after injection,"[11]; 10 mg/kg single dose i.p., day 1",4/6
same,Number of mice surviving after injection,"[11]; 10 mg/kg single dose i.p., day 2",4/6
same,Number of mice surviving after injection,"[11]; 10 mg/kg single dose i.p., day 3",4/6
same,Number of mice surviving after injection,"[11]; 10 mg/kg single dose i.p., day 4",4/6
same,Number of mice surviving after injection,"[11]; 30 mg/kg single dose i.p., day 0",4/6
same,Number of mice surviving after injection,"[11]; 30 mg/kg single dose i.p., day 1",4/6
same,Number of mice surviving after injection,"[11]; 30 mg/kg single dose i.p., day 2",0/6
same,Number of mice surviving after injection,"[11]; 30 mg/kg single dose i.p., day 3",0/6
same,Number of mice surviving after injection,"[11]; 30 mg/kg single dose i.p., day 4",0/6
same,MTD,"[11]; single dose i.p., nude mice",5-10 mg/kg body weight
same,dose that resulted in 100% survival of mice after 4 days,"[11]; single dose i.p., nude mice",about 5 mg/kg
same,IC50,L 929,1.23 µM
same,IC50,"DU145 [3]; DU-145, 48 h",37.6 µM
same,IC50,[12],No activity
same,IC50,L929,3.63 µM
same,IC50,MDAMB231 [8],5.88 µM
same,IC50,HeLa,5.12 µM
same,anticancer activity in cancer cell lines as compared to cisplatin,cancer cell lines,high anticancer activity
